# From patent US7078438B2, “N-(4 substituted phenyl)-anthranilic acid hydroxamate esters” (Warner-Lambert Company, priority 2002, dated 2006)
# Experiments:
# [1] = test system: MEK; assay: Cellular assay for measuring MEK inhibition (inhibition of ERK phosphorylation); assay type: cell-based; details: inhibition of phosphorylation of MAP kinase (ERK) in murine colon 26 (C26) carcinoma cells; 1 hour at 37° C.; Western blotting
# Description: Cellular Assay for Measuring MEK Inhibition
# The evaluation of the compounds as MEK inhibitors is performed in an assay that measures their ability to inhibit phosphorylation of MAP kinase (ERK) in murine colon 26 (C26) carcinoma cells. Since ERK1 and ERK2 represent the only known substrates for MEK, measurement of inhibition of ERK phosphorylation in cells provides direct readout of cellular MEK inhibition by the compounds of the invention. Briefly, the assay involves treating exponentially growing C26 cells with varying concentrations of the test compound (or vehicle control) for 1 hour at 37° C. Cells are then rinsed free of compound/vehicle and lysed in a solution containing 70 mM NaCl, 50 mM glycerol phosphate, 10 mM HEPES, pH 7.4, 1% Triton X-100, 1 mM Na3VO4, 100 μM PMSF, 10 μM leupeptin, and 10 μM pepstatin. Supernatants are then subjected to gel electrophoresis and Western blotting using a primary antibody recognizing dually phosphorylated ERK1 and ERK2. To evaluate total MAPK levels, blots were subsequently ‘stripped’ and re-probed with a 1:1 mixture of polyclonal antibodies recognizing unphosphorylated ERK1 and ERK2.
# The inhibition data generated by the above protocol is disclosed in Table 1. If several concentrations of inhibitor were tested, IC50 values (the concentration which gives 50% inhibition) were determined graphically from the dose response curve for % inhibition. Otherwise, percent inhibitions at measured concentrations are reported.
Structure (SMILES),IC50 [1],melting point
"CCc1ccc(Nc2c(C(=O)NOCCO)ccc(F)c2F)c(F)c1 [Example 1, 2-[(4-Ethyl-2-fluorophenyl)amino]-3,4-difluoro-N-(2-hydroxyethoxy)benzamide]",2.8 nM,
"CCc1ccc(Nc2c(C(=O)NOCCO)ccc(F)c2F)c(Cl)c1 [Example 2, 2-(2-Chloro-4-ethyl-phenylamino)-3,4-difluoro-N-(2-hydroxy-ethoxy)-benzamide]",8.6 nM,142.5 to 145 °C
"C=CCc1ccc(Nc2c(C(=O)NOCCO)ccc(F)c2F)c(F)c1 [Example 6, 2-(4-Allyl-2-fluoroanilino)-3,4-difluoro-N-(2-hydroxyethoxy)benzamide]",7.8 nM,173 to 177 °C
"CC(C)(O)C#Cc1ccc(Nc2c(C(=O)NOCCO)ccc(F)c2F)c(F)c1 [Example 12, 3,4-Difluoro-2-[2-fluoro-4-(3-hydroxy-3-methyl-1-butynyl)anilino]-N-(2-hydroxyethoxy)benzamide]",> 3000 nM,139 to 142 °C
"CCC(C)(O)C#Cc1ccc(Nc2c(C(=O)NOCCO)ccc(F)c2F)c(F)c1 (stereo not shown) [Example 13, 3,4-Difluoro-2-[2-fluoro-4-(3-hydroxy-3-methyl-1-pentynyl)anilino]-N-(2-hydroxyethoxy)benzamide]",> 1000 nM,127 to 131 °C
"NCCCc1ccc(Nc2c(C(=O)NOCCO)ccc(F)c2F)c(F)c1 [Example 14, 2-[4-(3-Aminopropyl)-2-fluoroanilino]-3,4-difluoro-N-(2-hydroxyethoxy)benzamide]",> 1000 nM,178 to 181 °C
"CN(C)CCCc1ccc(Nc2c(C(=O)NOCCO)ccc(F)c2F)c(F)c1 [Example 15, 2-{4-[3-(Dimethylamino)propyl]-2-fluoroanilino}-3,4-difluoro-N-(2-hydroxyethoxy)benzamide]",> 1000 nM,
"CNCCCc1ccc(Nc2c(C(=O)NOCCO)ccc(F)c2F)c(F)c1 [Example 16, 3,4-Difluoro-2-{2-fluoro-4-[3-(methylamino)propyl]anilino}-N-(2-hydroxyethoxy)benzamide]",> 1000 nM,112 to 116 °C
"O=C(NOCCO)c1ccc(F)c(F)c1Nc1ccc(CO)cc1 [Example 17, 3,4-Difluoro-N-(2-hydroxyethoxy)-2-[[4-(hydroxymethyl)phenyl]amino]benzamide]",> 1000 nM,73 to 77 °C
"O=C(NOCCO)c1ccc(F)c(F)c1Nc1ccc(CCCO)cc1F [Example 20, 3,4-Difluoro-2-[2-fluoro-4-(3-hydroxypropyl)anilino]-N-(2-hydroxyethoxy)benzamide]",,115 to 116 °C
"O=C(NOCCO)c1ccc(F)c(F)c1Nc1ccc(CCCCO)cc1F [Example 21, 3,4-Difluoro-2-[2-fluoro-4-(4-hydroxybutyl)anilino]-N-(2-hydroxyethoxy)benzamide]",800 nM,65 to 69 °C
"O=C(NOCCO)c1ccc(F)c(F)c1Nc1ccc(CC(O)CO)cc1F (stereo not shown) [Example 22, 2-[4-(2,3-Dihydroxypropyl)-2-fluoroanilino]-3,4-difluoro-N-(2-hydroxyethoxy)benzamide]",,118 to 120 °C
"CC(C)(O)CCc1ccc(Nc2c(C(=O)NOCCO)ccc(F)c2F)c(F)c1 [Example 23, 3,4-Difluoro-2-[2-fluoro-4-(3-hydroxy-3-methylbutyl)anilino]-N-(2-hydroxyethoxy)benzamide]",200 nM,
"CCC(C)(O)CCc1ccc(Nc2c(C(=O)NOCCO)ccc(F)c2F)c(F)c1 (stereo not shown) [Example 24, 3,4-Difluoro-2-[2-fluoro-4-(3-hydroxy-3-methylpentyl)anilino]-N-(2-hydroxyethoxy)benzamide]",590 nM,
"COCCCc1ccc(Nc2c(C(=O)NOCCO)ccc(F)c2F)c(F)c1 [Example 25, 3,4-Difluoro-2-[[2-fluoro-4-(3-methoxypropyl)phenyl]amino]-N-(2-hydroxyethoxy)benzamide]",22 nM,
"CCSc1ccc(Nc2c(C(=O)NOCCO)ccc(F)c2F)c(F)c1 [Example 27, 3,4-Difluoro-2-[[2-fluoro-4-(ethylthio)phenyl]amino]-N-(2-hydroxyethoxy)benzamide]",2.2 nM,129 to 132 °C
"CS(=O)(=O)c1ccc(Nc2c(C(=O)NOCCO)ccc(F)c2F)c(F)c1 [Example 28, 3,4-Difluoro-2-[[2-fluoro-4-(methylsulfonyl)phenyl]amino]-N-(2-hydroxyethoxy)benzamide]",720 nM,85 to 88 °C
"CCCc1ccc(Nc2c(C(=O)NOCCO)ccc(F)c2F)c(F)c1 [Example 29, 3,4-Difluoro-2-(2-fluoro-4-propylanilino)-N-(2-hydroxyethoxy)benzamide]",4.1 nM,144 to 146 °C
"CCCCc1ccc(Nc2c(C(=O)NOCCO)ccc(F)c2F)c(F)c1 [Example 30, 2-(4-Butyl-2-fluoroanilino)-3,4-difluoro-N-(2-hydroxyethoxy)benzamide]",190 nM,
"CCc1ccc(Nc2c(C(=O)NOC[C@@H](O)CO)ccc(F)c2F)c(F)c1 [Example 32, N-[(S+)2,3-Dihydroxy-propoxy]-2-(4-ethyl-2-fluoro-phenylamino)-3,4-difluoro-benzamide]",2 nM,
"CCc1ccc(Nc2c(C(=O)NOC(CO)CO)ccc(F)c2F)c(F)c1 [Example 33, 2-(4-Ethyl-2-fluoro-phenylamino)-3,4-difluoro-N-(2-hydroxy-1-hydroxymethyl-ethoxy)-benzamide]",,91 to 93 °C

# Other lines, results leading:
IC50 [1],melting point,Structure (SMILES)
0.15 nM,134 to 139 °C,"Cc1ccc(Nc2c(C(=O)NOCCO)ccc(F)c2F)c(F)c1 [Example 3, 3,4-Difluoro-2-(2-fluoro-4-methylanilino)-N-(2-hydroxyethoxy)benzamide]"
2.6 nM,134 to 138 °C,"C=Cc1ccc(Nc2c(C(=O)NOCCO)ccc(F)c2F)c(F)c1 [Example 4, 3,4-Difluoro-2-[(2-fluoro-4-vinylphenyl)amino]-N-(2-hydroxyethoxy)benzamide]"
0.15 nM,158 to 161 °C,C#Cc1ccc(Nc2c(C(=O)NOCCO)ccc(F)c2F)c(F)c1 [Example 7]
4 nM,155 to 157 °C,"C#Cc1ccc(Nc2c(C(=O)NOCCO)ccc(F)c2F)c(Cl)c1 [Example 8, 2-(2-Chloro-4-ethynyl-phenylamino)-3,4-difluoro-N-(2-hydroxy-ethoxy)-benzamide]"
467 nM,72 to 76 °C,"NCC#Cc1ccc(Nc2c(C(=O)NOCCO)ccc(F)c2F)c(F)c1 [Example 9, 2-[4-(3-Amino-1-propynyl)-2-fluoroanilino]-3,4-difluoro-N-(2-hydroxyethoxy)benzamide]"
130 nM,169 to 172 °C,"O=C(NOCCO)c1ccc(F)c(F)c1Nc1ccc(C#CCO)cc1F [Example 10, 3,4-Difluoro-2-[2-fluoro-4-(3-hydroxy-1-propynyl)anilino]-N-(2-hydroxyethoxy)benzamide]"
700 nM,126 to 129 °C,"O=C(NOCCO)c1ccc(F)c(F)c1Nc1ccc(C#CCCO)cc1F [Example 11, 3,4-Difluoro-2-[2-fluoro-4-(4-hydroxy-1-butynyl)anilino]-N-(2-hydroxyethoxy)benzamide]"
,108 to 110 °C,"O=C(NOCCO)c1ccc(F)c(F)c1Nc1ccc(CO)cc1F [Example 18, 3,4-Difluoro-2-[2-fluoro-4-(hydroxymethyl)anilino]-N-(2-hydroxyethoxy)benzamide]"
0.85 nM,108 to 111 °C,"CSc1ccc(Nc2c(C(=O)NOCCO)ccc(F)c2F)c(F)c1 [Example 26, 3,4-Difluoro-2-[[2-fluoro-4-(methylthio)phenyl]amino]-N-(2-hydroxyethoxy)benzamide]"
